Data set [1] has as its target T1, ABCC2 (Homo sapiens, UniProt Q92887). The experiment in a line: Inhibition of ABCC2-mediated docetaxel efflux. The data set is classed as cell-based. The settings on record: for Inhibition of docetaxel efflux: 20 μM sorafenib or sunitinib, or 50 μM MK571, 5 μM docetaxel, 4 h, cells overexpressing ABCC2.
Data set [2] has as its target T2, ABCC4 (Homo sapiens, UniProt O15439).
T2 sequence (O15439 1-1325): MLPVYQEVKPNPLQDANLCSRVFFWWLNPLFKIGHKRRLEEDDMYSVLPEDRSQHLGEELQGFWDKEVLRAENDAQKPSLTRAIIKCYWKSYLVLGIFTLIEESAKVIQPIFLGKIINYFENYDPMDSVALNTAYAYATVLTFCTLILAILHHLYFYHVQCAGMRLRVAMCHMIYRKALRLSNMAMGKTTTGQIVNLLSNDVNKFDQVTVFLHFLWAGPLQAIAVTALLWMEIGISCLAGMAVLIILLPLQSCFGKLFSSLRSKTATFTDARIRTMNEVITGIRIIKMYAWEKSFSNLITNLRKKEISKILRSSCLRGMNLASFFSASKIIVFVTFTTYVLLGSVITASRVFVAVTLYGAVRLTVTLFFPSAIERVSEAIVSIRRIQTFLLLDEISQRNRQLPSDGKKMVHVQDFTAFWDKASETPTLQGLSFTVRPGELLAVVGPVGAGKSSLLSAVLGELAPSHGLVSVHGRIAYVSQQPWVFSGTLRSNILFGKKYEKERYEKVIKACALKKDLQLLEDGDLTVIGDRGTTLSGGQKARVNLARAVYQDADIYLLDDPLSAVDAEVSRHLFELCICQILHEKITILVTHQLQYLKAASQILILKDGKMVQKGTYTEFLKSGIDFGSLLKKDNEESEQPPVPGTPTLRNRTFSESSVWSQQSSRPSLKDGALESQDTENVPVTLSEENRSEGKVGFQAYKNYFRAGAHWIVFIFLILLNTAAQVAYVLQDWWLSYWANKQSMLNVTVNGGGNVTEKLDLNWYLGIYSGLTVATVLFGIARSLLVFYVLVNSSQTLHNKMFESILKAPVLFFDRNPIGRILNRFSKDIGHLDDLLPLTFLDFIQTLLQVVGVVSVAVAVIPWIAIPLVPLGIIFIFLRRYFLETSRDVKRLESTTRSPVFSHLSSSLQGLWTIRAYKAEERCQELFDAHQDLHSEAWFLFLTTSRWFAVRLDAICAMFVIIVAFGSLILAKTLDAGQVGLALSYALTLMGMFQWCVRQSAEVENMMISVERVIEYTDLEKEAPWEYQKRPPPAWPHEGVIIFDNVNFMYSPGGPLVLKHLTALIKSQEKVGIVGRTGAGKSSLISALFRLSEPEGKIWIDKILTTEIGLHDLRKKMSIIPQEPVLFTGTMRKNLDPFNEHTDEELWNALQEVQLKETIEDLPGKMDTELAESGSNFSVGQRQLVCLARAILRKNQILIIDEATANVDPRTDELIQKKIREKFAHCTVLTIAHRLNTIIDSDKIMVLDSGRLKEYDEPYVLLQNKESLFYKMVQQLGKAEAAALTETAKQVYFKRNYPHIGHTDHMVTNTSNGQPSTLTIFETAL
Briefly: Inhibition of ABCC4-mediated PMEA efflux in Saos-2 cells. Format: cell-based. The settings on record: for Inhibition of PMEA efflux: 20 μM sorafenib or sunitinib, or 50 μM MK571, 4 h, cells overexpressing ABCC4.

The conditions of data set [3]: ref [39], cited from earlier work.
For data set [4] the following is noted: wild-type murine models, cited from earlier work.
The test system of data set [5] is CYP3a. The settings on record: CYP3a-/- knockout mice; ref [43]; cited from earlier work.
Data set [6] concerns Abcb1. As to conditions: mice lacking ABCB1; ref [42]; cited from earlier work.
Data set [7] has as its system ABCB1 or ABCC2. As to conditions: mice lacking one or both transporters (ABCB1, ABCC2); ref [40]; cited from earlier work.
Data set [8] has as its system Abcb1 and Abcg2. As to conditions: mice lacking both Abcb1 and Abcg2; ref [6], [44]; cited from earlier work.
The test system of data set [9] is Abcb1. As to conditions: Abcb1 knockout mice; ref [6], [44]; cited from earlier work.
The target of data set [10] is T1, ABCC2. Briefly: Accumulation in MDCKII cells overexpressing ABCC2. The data set is classed as in vitro ADME. The settings on record: 1 μM, 4 h.
For data set [11], the target named is T1, ABCC2. Briefly: Vanadate sensitive ATPase assay of ABCC2 in membrane vesicles. Format: biochemical. As to conditions: activation test, 0.14-300 μM, 10 min, concentration dependent.
The test system of data set [12] is Abcb1. The settings on record: brain concentration at 4 h / plasma AUC0-4h; oral sorafenib 40 mg/kg or sunitinib 20 mg/kg.
The nature of data set [13]: Brain penetration and brain concentration in mice. The data set is classed as in vivo.
Data set [14] relates to Abcb1. As to conditions: single oral dose, sorafenib 40 mg/kg or sunitinib 20 mg/kg.
Data set [15] deals with acute myelogenous leukemia. The settings on record: sorafenib with cytarabine/idarubicin, cited from earlier work.
Data set [16] deals with T3, ABCB1 (Homo sapiens, UniProt P08183). Briefly: Transcellular transport in LLC-PK1 cells expressing ABCB1. Format: in vitro ADME. The settings on record: 10 μM, LLC-PK1 cells overexpressing ABCB1.
T3 sequence (P08183 whole entry): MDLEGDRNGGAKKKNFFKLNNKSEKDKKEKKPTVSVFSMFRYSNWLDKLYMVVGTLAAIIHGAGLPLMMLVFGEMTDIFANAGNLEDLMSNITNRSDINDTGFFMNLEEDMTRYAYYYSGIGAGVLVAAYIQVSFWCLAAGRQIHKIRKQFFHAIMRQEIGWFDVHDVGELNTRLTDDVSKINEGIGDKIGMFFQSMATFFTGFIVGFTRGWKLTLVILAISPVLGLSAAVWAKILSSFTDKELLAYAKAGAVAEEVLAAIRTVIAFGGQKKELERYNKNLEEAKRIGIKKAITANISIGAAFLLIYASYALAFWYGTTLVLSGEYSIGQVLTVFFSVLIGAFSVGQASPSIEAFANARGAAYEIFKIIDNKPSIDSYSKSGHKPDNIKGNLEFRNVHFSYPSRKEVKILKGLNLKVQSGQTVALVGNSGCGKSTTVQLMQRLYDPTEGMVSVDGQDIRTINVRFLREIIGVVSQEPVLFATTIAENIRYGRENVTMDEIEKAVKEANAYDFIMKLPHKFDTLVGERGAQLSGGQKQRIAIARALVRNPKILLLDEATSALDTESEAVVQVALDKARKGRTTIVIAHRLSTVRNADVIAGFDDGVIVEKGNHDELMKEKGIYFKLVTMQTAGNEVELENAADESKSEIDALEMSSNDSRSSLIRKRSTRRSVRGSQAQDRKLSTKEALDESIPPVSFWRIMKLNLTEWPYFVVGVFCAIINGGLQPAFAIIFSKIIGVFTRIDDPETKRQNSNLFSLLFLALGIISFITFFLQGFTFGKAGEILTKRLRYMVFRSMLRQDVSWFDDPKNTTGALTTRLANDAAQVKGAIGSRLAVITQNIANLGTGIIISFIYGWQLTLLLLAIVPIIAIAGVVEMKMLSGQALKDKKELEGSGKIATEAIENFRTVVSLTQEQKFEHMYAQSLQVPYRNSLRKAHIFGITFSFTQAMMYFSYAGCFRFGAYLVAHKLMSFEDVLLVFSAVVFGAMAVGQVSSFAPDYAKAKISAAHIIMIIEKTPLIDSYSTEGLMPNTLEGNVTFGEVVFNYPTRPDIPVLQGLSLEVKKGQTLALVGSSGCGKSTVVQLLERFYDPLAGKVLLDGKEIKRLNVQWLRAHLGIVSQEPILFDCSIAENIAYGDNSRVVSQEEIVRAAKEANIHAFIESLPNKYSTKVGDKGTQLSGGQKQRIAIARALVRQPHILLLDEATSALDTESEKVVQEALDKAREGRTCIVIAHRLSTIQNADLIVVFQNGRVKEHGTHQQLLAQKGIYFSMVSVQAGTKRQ
The target in data set [17] is T2, ABCC4. Briefly: Accumulation in Saos-2 cells overexpressing ABCC4. The data set is classed as in vitro ADME. As to conditions: 1 μM, 4 h.
Data set [18] relates to OATP1A2, OATP1B1, OATP1B3, OCT1, OAT2, OCTN1 and OCTN2. As to conditions: oocytes or HEK293 cells; sorafenib 0.35-1.5 μM or sunitinib 0.15-0.45 μM, 1 h.
The target of data set [19] is ABCG2 (Homo sapiens, UniProt Q9UNQ0). As to conditions: 1 μM, 4 h, Saos-2 cells.
Sequence of ABCG2 (Homo sapiens, UniProt Q9UNQ0) (Q9UNQ0 whole entry): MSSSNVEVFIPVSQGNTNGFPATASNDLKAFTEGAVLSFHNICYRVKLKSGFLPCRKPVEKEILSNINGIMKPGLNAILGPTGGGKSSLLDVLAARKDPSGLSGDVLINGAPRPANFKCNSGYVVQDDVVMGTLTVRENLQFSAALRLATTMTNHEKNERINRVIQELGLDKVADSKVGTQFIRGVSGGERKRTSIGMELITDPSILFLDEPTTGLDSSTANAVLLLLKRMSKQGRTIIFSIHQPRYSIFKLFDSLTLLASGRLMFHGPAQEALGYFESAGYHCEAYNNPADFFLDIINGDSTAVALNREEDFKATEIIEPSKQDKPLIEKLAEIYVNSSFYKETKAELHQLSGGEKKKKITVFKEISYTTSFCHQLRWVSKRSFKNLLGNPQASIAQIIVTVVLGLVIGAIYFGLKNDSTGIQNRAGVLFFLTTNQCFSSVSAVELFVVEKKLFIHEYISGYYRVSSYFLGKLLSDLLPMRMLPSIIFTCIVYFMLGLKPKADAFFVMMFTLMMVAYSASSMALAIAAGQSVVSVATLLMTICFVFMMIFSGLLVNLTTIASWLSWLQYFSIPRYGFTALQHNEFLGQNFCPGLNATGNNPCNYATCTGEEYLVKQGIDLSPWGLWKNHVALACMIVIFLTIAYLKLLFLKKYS
Data set [20] has as its target T3, ABCB1. The experiment in a line: Inhibition of calcein-AM efflux in LLC-PK1 cells expressing ABCB1. The data set is classed as cell-based.
For data set [21], the system named is ABCB1. The settings on record: ref [38]; cited from earlier work.
Data set [22] has as its system ABCG2. As to conditions: ref [38]; cited from earlier work.
In data set [23] the target is T4, OCTN2 (Homo sapiens, UniProt O76082).
T4 sequence (O76082 1-557): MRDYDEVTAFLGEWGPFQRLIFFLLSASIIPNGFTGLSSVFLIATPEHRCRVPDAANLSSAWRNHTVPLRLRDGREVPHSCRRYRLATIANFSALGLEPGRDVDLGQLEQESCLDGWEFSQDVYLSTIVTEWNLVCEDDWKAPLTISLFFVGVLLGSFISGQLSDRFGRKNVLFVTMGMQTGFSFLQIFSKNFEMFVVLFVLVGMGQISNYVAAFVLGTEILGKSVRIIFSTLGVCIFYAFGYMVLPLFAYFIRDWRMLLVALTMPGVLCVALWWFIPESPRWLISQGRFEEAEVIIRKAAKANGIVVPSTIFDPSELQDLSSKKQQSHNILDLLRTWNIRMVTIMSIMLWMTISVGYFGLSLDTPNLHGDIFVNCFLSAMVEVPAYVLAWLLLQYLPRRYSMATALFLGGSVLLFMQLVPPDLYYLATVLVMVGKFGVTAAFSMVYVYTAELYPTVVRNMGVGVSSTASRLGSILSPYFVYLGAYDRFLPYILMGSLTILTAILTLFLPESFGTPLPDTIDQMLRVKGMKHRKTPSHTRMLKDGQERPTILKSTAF
Briefly: Uptake in HEK293 cells overexpressing OCTN2. Format: in vitro ADME. The settings on record: HEK293 cells expressing OCTN2, 1 h.

The mark [24] stands for this setting: 38 patients with newly diagnosed AML.

Results on nine compounds are retold here after article PMC2774722 (Clinical cancer research : an official journal of the …, 2009).

pIC50: −log10 of the molar value. Several values for one entry are separate records, joined by “and”; a condition that tells them apart may be missing. Equal entries are not always repeated. Where two headings read alike, the source gives them in different places.

T1 sequence (Q92887 whole entry): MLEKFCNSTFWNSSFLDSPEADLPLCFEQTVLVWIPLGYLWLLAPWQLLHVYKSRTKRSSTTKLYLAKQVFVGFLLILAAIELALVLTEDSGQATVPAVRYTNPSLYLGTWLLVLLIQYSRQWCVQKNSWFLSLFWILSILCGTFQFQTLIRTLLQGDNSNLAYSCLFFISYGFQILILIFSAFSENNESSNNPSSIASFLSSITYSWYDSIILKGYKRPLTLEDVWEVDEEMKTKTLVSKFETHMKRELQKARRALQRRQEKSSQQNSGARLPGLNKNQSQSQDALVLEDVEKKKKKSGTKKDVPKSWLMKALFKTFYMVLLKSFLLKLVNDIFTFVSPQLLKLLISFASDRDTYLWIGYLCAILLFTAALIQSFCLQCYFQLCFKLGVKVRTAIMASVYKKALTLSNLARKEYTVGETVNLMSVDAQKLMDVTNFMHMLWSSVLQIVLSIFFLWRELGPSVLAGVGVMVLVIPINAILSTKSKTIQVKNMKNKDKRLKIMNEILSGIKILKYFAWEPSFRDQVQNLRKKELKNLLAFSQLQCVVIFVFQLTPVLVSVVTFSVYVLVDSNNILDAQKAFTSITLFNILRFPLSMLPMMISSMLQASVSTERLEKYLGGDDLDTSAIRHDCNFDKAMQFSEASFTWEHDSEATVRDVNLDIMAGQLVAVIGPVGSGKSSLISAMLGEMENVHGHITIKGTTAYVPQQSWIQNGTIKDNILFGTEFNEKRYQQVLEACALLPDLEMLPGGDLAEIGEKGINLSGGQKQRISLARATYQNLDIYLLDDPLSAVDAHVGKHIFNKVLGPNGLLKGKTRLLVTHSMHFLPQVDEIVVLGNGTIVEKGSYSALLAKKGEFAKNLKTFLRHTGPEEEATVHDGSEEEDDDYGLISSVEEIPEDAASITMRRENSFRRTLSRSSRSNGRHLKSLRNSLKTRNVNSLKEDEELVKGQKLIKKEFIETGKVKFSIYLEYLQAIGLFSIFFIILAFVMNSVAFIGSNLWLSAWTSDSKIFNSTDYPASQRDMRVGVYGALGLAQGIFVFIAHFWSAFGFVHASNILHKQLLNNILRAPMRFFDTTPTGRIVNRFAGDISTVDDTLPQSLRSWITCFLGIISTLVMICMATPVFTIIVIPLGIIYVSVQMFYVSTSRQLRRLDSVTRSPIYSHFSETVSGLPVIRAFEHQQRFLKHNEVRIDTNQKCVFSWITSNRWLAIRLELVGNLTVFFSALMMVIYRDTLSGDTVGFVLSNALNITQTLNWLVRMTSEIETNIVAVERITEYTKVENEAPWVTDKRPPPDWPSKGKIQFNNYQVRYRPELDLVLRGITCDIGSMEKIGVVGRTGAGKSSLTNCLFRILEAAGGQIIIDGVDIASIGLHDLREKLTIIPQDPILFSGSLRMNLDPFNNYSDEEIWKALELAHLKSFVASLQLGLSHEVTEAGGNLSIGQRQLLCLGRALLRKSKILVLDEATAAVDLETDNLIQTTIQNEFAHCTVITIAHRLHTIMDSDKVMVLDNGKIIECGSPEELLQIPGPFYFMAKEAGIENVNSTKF

On to `CN(C)C(=O)CCSC(SCCC(=O)O)c1cccc(/C=C/c2ccc3ccc(Cl)cc3n2)c1` (stereo not drawn) [MK571], for which the “Inhibition of docetaxel efflux” value in data set [1] was “approximately 90%”. In addition, the “Inhibition of PMEA efflux” value in data set [2] is listed as approximately 100%.
Regarding `CCc1c2c(nc3ccc(O)cc13)-c1cc3c(c(=O)n1C2)COC(=O)[C@]3(O)CC` [SN-38], the “Change in plasma exposure when co-administered with sorafenib” value in data set [3] is on record as “minimal to no increases”.
As to `Cc1nc(Nc2ncc(C(=O)Nc3c(C)cccc3Cl)s2)cc(N2CCN(CCO)CC2)n1` [dasatinib], the Brain penetration in data set [4] (ref [45]) is 3-8%.
In the case of `CC(=O)O[C@@]12CO[C@@H]1C[C@H](O)[C@@]1(C)C(=O)[C@H](O)C3=C(C)[C@@H](OC(=O)[C@H](O)[C@@H](NC(=O)OC(C)(C)C)c4ccccc4)C[C@@](O)([C@@H](OC(=O)c4ccccc4)[C@H]21)C3(C)C` [docetaxel], the “Exposure compared to wild-type counterparts” value in [5] is “significanty increased”. The “Plasma exposure compared to wild-type mice” value in data set [6] is recorded as “unchanged”.
In the case of `COc1cccc2c1C(=O)c1c(O)c3c(c(O)c1C2=O)C[C@@](O)(C(=O)CO)C[C@@H]3O[C@H]1C[C@H](N)[C@H](O)[C@H](C)O1` [doxorubicin], the “Increase in plasma exposure in combination with sorafenib” value in data set [3] (phase I trial) was 20-30%. The “Plasma exposure compared to wild-type mice” value in [7] is given as “unaltered”.
For the compound `Cc1ccc(NC(=O)c2ccc(CN3CCN(C)CC3)cc2)cc1Nc1nccc(-c2cccnc2)n1` [imatinib], the “Increase in brain penetration compared to wild-type mice” value in data set [8] is given as 12.6 fold; in [9], 3.6 fold. Besides, in data set [4] (ref [6], [44]), the Brain penetration is recorded as 2-10%.
Regarding `CCc1c2c(nc3ccc(OC(=O)N4CCC(N5CCCCC5)CC4)cc13)-c1cc3c(c(=O)n1C2)COC(=O)[C@]3(O)CC` [irinotecan], the “Change in plasma exposure when co-administered with sorafenib” value in [3] is listed as “minimal to no increases”.
For the compound `CNC(=O)c1cc(Oc2ccc(NC(=O)Nc3ccc(Cl)c(C(F)(F)F)c3)cc2)ccn1` [sorafenib], the “Transport by ABCC2” value in data set [10] is “not transported”. Also, in data set [11], the “Effect on baseline ATPase activity of ABCC2” value is listed as “inhibited”. Also, the inhibition at 20 µM in data set [1] (read-out: Inhibition of docetaxel efflux) is approximately 50%. For the same compound, the “Increase in brain penetration in knockout animals versus controls” value in [12] was 1.9 fold. For the same compound, the concentration at 4 h in [13] (FVB, mouse, brain, po, 40 mg/kg) is ~300 ng/mL and 645 nM. The compound also gave a Brain penetration in data set [13] (wild-type mice, brain concentration at 4 h / plasma AUC0-4h, oral sorafenib 40 mg/kg or sunitinib 20 mg/kg) of 3%. Moreover, the “Plasma AUC0-4h, wild type versus Abcb1 knockout mice” value in data set [14] is on record as “not significantly different”. Besides, in data set [15] (setting [24]), the Overall response rate is reported as 83% and the “Patients achieving a complete response” value is reported as 70%. In [15] (at 9 months follow-up), the Probability of survival is 82% and the Remission duration is 72%. Also, in data set [16], the “Transport by ABCB1” value was “not transported”. Moreover, in data set [17], the “Transport by ABCC4” value is “not transported”. Also, the inhibition at 20 µM in data set [2] (SAOS-2, read-out: Inhibition of PMEA efflux) was approximately 70%. For the same compound, in data set [18], the “Transport (uptake) by solute carriers compared to control” value was “none of the transporters tested facilitated”. The “Transport by ABCG2” value in data set [19] is on record as “not transported”. The pIC50 in data set [20] was 4.78.
Take `CCN(CC)CCNC(=O)c1c(C)[nH]c(/C=C2\C(=O)Nc3ccc(F)cc32)c1C` [sunitinib]: the “Reversal of ABCB1-mediated resistance to romidepsin” value in data set [21] is “partially reverse”. Further, the “Inhibition of docetaxel efflux” value in [1] is on record as approximately 80%. Moreover, in data set [12], the “Increase in brain penetration in knockout animals versus controls” value was 2.9 fold. Moreover, the “Plasma AUC0-4h, wild type versus Abcb1 knockout mice” value in [14] is recorded as “not significantly different”. Moreover, the “Transport by ABCB1” value in data set [16] is “substantially reduced”. The “Inhibition of PMEA efflux” value in [2] was approximately 80%. For the same compound, the “Transport (uptake) by solute carriers compared to control” value in [18] is given as “none of the transporters tested facilitated”. Moreover, the “Reversal of topotecan resistance mediated by ABCG2” value in [22] was “completely reverse”. Further, the “Transport over control by OCTN2” value in data set [23] amounted to 130%. Also, the “Transport by ABCG2” value in [19] was “not transported”.
